Key:
Type in all cases: in vivo
Design in all cases: key: 0 is no effect; 10 is complete control
[1] = test system: wild oat (Avena fatua); test: Test B pre-/postemergence
How it was run: (§1)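 Seeds were planted and sprayed preemergence, while plants at 2 to 18 cm (1- to 4-leaf stage) were sprayed postemergence at the same time, with test chemical in a non-phytotoxic solvent mixture containing surfactant. After twelve to sixteen days in a greenhouse, injury was rated visually against untreated controls on a 0–10 scale.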

[2] = test system: purple nutsedge (Cyperus rotundus); test: Test B pre-/postemergence
How it was run: as §1

[3] = test system: pigweed (Amaranthus retroflexus); test: Test B pre-/postemergence
How it was run: as §1

[4] = test system: broadleaf signalgrass (Brachiaria decumbens); test: Test B pre-/postemergence; settings: for B. signalgrass plant response rating: Preemergence
How it was run: as §1

[5] = test system: bedstraw (Galium aparine); test: Test B pre-/postemergence; settings: for Bedstraw plant response rating: Preemergence
How it was run: as §1

[6] = test system: velvetleaf (Abutilon theophrasti); test: Test B pre-/postemergence
How it was run: as §1

[7] = test system: crabgrass (Digitaria sanguinalis); test: Test B pre-/postemergence; settings: for Crabgrass plant response rating: Preemergence
How it was run: as §1

[8] = test system: rape (Brassica napus); test: Test B pre-/postemergence
How it was run: as §1

[9] = test system: soybean (Glycine max); test: Test B pre-/postemergence
How it was run: as §1

[10] = test system: giant foxtail (Setaria faberii); test: Test B pre-/postemergence
How it was run: as §1

[11] = test system: corn (Zea mays); test: Test B pre-/postemergence; settings: for Corn plant response rating: Preemergence
How it was run: as §1

[12] = test system: momingglory (Ipomoea hederacea); test: Test B pre-/postemergence
How it was run: as §1

[13] = test system: blackgrass (Alopecurus myosuroides); test: Test B pre-/postemergence; settings: for Blackgrass plant response rating: Preemergence
How it was run: as §1

[14] = test system: wheat (Triticum aestivum); test: Test B pre-/postemergence
How it was run: as §1

[15] = test system: cocklebur (Xanthium strumarium); test: Test B pre-/postemergence; settings: for Plant response rating, Cocklebur: Postemergence; for Cocklebur plant response rating: Preemergence
How it was run: as §1

[16] = test system: sugar beet (Beta vulgaris); test: Test B pre-/postemergence
How it was run: as §1

[17] = test system: smallflower flatsedge (Cyperus difformis); test: Test B flood test
How it was run: (§2)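 Plants were grown to the 2-leaf stage before treatment with test chemical, then held in a greenhouse for twelve to sixteen days. Injury was visually rated against untreated controls on a 0–10 scale, where 0 is no effect and 10 is complete control.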

[18] = test system: duck salad (Heteranthera limosa); test: Test B flood test
How it was run: as §2

[19] = test system: bamyardgrass (Echinochloa crus-galli); test: Test B flood test
How it was run: as §2

[20] = test system: rice (Oryza sativa); test: Test B flood test
How it was run: as §2

[21] = Rate 250 g/ha, Postemergence (so in the source)
[22] = Rate 62 g/ha, Postemergence (flood test)
[23] = Rate 125 g/ha, Postemergence section (flood test species)
[24] = Rate 250 g/ha, Postemergence (flood test species)
[25] = Rate 125 g/ha, Postemergence, flood test

## Cc1cnc(-c2ccc(Cl)c(Cl)c2)nc1Cc1cccc(C#N)c1 [Compound 38]
[1]; Rate 62 g/ha, Postemergence
  Wild oats plant response rating: 1
[1]; Rate 62 g/ha, Preemergence
  Wild oats plant response rating: 0
[1]; Rate 125 g/ha, Postemergence
  Wild oats plant response rating: 1
[1]; Rate 125 g/ha, Preemergence
  Plant response rating, Wild oats: 0
[1]; Rate 250 g/ha, Postemergence
  Plant response rating, Wild oats: 1
[1]; [21]
  Plant response rating, Wild oats: 0
[2]; Rate 62 g/ha, Postemergence
  Plant response rating, Nutsedge: 0
[2]; Rate 62 g/ha, Preemergence
  Nutsedge plant response rating: 0
[2]; Rate 125 g/ha, Postemergence
  Nutsedge plant response rating: 0
[2]; Rate 125 g/ha, Preemergence
  Nutsedge plant response rating: 0
[2]; Rate 250 g/ha, Postemergence
  Plant response rating, Nutsedge: 0
[2]; [21]
  Plant response rating, Nutsedge: 0
[3]; Rate 62 g/ha, Postemergence
  Plant response rating, Redroot pigweed: 2
[3]; Rate 62 g/ha, Preemergence
  Redroot pigweed plant response rating: 0
[3]; Rate 125 g/ha, Postemergence
  Redroot pigweed plant response rating: 4
[3]; Rate 125 g/ha, Preemergence
  Redroot pigweed plant response rating: 0
[3]; Rate 250 g/ha, Postemergence
  Plant response rating, Redroot pigweed: 5
[3]; [21]
  Plant response rating, Redroot pigweed: 0
[4]; Rate 62 g/ha, Postemergence
  Plant response rating, B. signalgrass: 1
[4]; Rate 62 g/ha
  B. signalgrass plant response rating: 0
[4]; Rate 125 g/ha, Postemergence
  Plant response rating, B. signalgrass: 1
[4]; Rate 125 g/ha
  B. signalgrass plant response rating: 0
[4]; Rate 250 g/ha, Postemergence
  Plant response rating, B. signalgrass: 1
[4]; Rate 250 g/ha, Postemergence as printed in head r139 (second section for compounds 26-50)
  Plant response rating, B. signalgrass: 1
[5]; Rate 62 g/ha, Postemergence
  Plant response rating, Bedstraw: 7
[5]; Rate 62 g/ha
  Bedstraw plant response rating: 0
[5]; Rate 125 g/ha, Postemergence
  Plant response rating, Bedstraw: 7
[5]; Rate 125 g/ha
  Bedstraw plant response rating: 1
[5]; [21]
  Plant response rating, Bedstraw: 2
[6]; Rate 62 g/ha, Postemergence
  Plant response rating, Velvetleaf: 1
[6]; Rate 62 g/ha, Preemergence
  Velvetleaf plant response rating: 0
[6]; Rate 125 g/ha, Postemergence
  Velvetleaf plant response rating: 1
[6]; Rate 125 g/ha, Preemergence
  Plant response rating, Velvetleaf: 0
[6]; Rate 250 g/ha, Postemergence
  Plant response rating, Velvetleaf: 2
[6]; [21]
  Plant response rating, Velvetleaf: 0
[7]; Rate 62 g/ha, Postemergence
  Plant response rating, Crabgrass: 0
[7]; Rate 62 g/ha
  Crabgrass plant response rating: 0
[7]; Rate 125 g/ha, Postemergence
  Plant response rating, Crabgrass: 0
[7]; Rate 125 g/ha
  Crabgrass plant response rating: 0
[7]; Rate 250 g/ha, Postemergence
  Plant response rating, Crabgrass: 1
[7]; [21]
  Plant response rating, Crabgrass: 0
[8]; Rate 62 g/ha, Postemergence
  Plant response rating, Rape: 3
[8]; Rate 62 g/ha, Preemergence
  Rape plant response rating: 0
[8]; Rate 125 g/ha, Postemergence
  Rape plant response rating: 3
[8]; Rate 125 g/ha, Preemergence
  Rape plant response rating: 0
[8]; Rate 250 g/ha, Postemergence
  Plant response rating, Rape: 6
[8]; [21]
  Plant response rating, Rape: 0
[9]; Rate 62 g/ha, Postemergence
  Plant response rating, Soybean: 1
[9]; Rate 62 g/ha, Preemergence
  Soybean plant response rating: 0
[9]; Rate 125 g/ha, Postemergence
  Soybean plant response rating: 1
[9]; Rate 125 g/ha, Preemergence
  Plant response rating, Soybean: 0
[9]; Rate 250 g/ha, Postemergence
  Plant response rating, Soybean: 1
[9]; [21]
  Plant response rating, Soybean: 0
[10]; Rate 62 g/ha, Postemergence
  Plant response rating, Giant foxtail: 0
[10]; Rate 62 g/ha, Preemergence
  Giant foxtail plant response rating: 0
[10]; Rate 125 g/ha, Postemergence
  Giant foxtail plant response rating: 1
[10]; Rate 125 g/ha, Preemergence
  Giant foxtail plant response rating: 1
[10]; Rate 250 g/ha, Postemergence
  Plant response rating, Giant foxtail: 0
[10]; [21]
  Plant response rating, Giant foxtail: 1
[11]; Rate 62 g/ha, Postemergence
  Plant response rating, Corn: 1
[11]; Rate 62 g/ha
  Corn plant response rating: 0
[11]; Rate 125 g/ha, Postemergence
  Plant response rating, Corn: 1
[11]; Rate 125 g/ha
  Corn plant response rating: 0
[11]; Rate 250 g/ha, Postemergence
  Plant response rating, Corn: 1
[11]; [21]
  Plant response rating, Corn: 0
[12]; Rate 62 g/ha, Postemergence
  Plant response rating, Morningglory: 1
[12]; Rate 62 g/ha, Preemergence
  Morningglory plant response rating: 0
[12]; Rate 125 g/ha, Postemergence
  Morningglory plant response rating: 1
[12]; Rate 125 g/ha, Preemergence
  Morningglory plant response rating: 0
[12]; Rate 250 g/ha, Postemergence
  Plant response rating, Morningglory: 1
[12]; [21]
  Plant response rating, Morningglory: 0
[13]; Rate 62 g/ha, Postemergence
  Plant response rating, Blackgrass: 0
[13]; Rate 62 g/ha
  Blackgrass plant response rating: 0
[13]; Rate 125 g/ha, Postemergence
  Plant response rating, Blackgrass: 0
[13]; Rate 125 g/ha
  Blackgrass plant response rating: 0
[13]; Rate 250 g/ha, Postemergence
  Plant response rating, Blackgrass: 0
[13]; [21]
  Plant response rating, Blackgrass: 0
[14]; Rate 62 g/ha, Postemergence
  Wheat plant response rating: 1
[14]; Rate 62 g/ha, Preemergence
  Wheat plant response rating: 0
[14]; Rate 125 g/ha, Postemergence
  Wheat plant response rating: 1
[14]; Rate 125 g/ha, Preemergence
  Plant response rating, Wheat: 0
[14]; Rate 250 g/ha, Postemergence
  Plant response rating, Wheat: 1
[14]; [21]
  Plant response rating, Wheat: 0
[15]; Rate 62 g/ha
  Plant response rating, Cocklebur: 4
  Cocklebur plant response rating: 0
[15]; Rate 125 g/ha
  Plant response rating, Cocklebur: 7
  Cocklebur plant response rating: 0
[15]; Rate 250 g/ha
  Plant response rating, Cocklebur: 8
[16]; Rate 62 g/ha, Postemergence
  Plant response rating, Sugarbeets: 9
[16]; Rate 62 g/ha, Preemergence
  Sugarbeets plant response rating: 0
[16]; Rate 125 g/ha, Postemergence
  Sugarbeets plant response rating: 9
[16]; Rate 125 g/ha, Preemergence
  Plant response rating, Sugarbeets: 0
[16]; Rate 250 g/ha, Postemergence
  Plant response rating, Sugarbeets: 9
[16]; [21]
  Plant response rating, Sugarbeets: 0
[17]; [22]
  Plant response rating, S. Flatsedge: 0
[17]; [23]
  S. Flatsedge plant response rating: 3
[17]; [24]
  Plant response rating, S. Flatsedge: 4
[18]; [22]
  Plant response rating, Ducksalad: 0
[18]; [25]
  Plant response rating, Ducksalad: 0
[18]; [24]
  Plant response rating, Ducksalad: 0
[19]; [22]
  Plant response rating, Barnyardgrass: 0
[19]; [25]
  Plant response rating, Barnyardgrass: 0
[19]; [24]
  Plant response rating, Barnyardgrass: 0
[20]; [22]
  Plant response rating, Rice: 0
[20]; [23]
  Rice plant response rating: 0
[20]; [24]
  Plant response rating, Rice: 0
